# Reference: patent publication US5786492A, “Halichondrins” (Pharma Mar, S.A., priority 1992, dated 1998)
# Tested on: P388 cell line
# Test: antitumor P388 bioassay
# Type: cell-based, murine
# Details: for IC50, murine leukaemia cell (P388 cell line): text comparison of three halichondrins
# Source text: Most of the compounds have been submitted to the antitumor P388 bioassay.
SMILES,IC50 against P388 cell line (conc 0.0001 (unit of conc not given)) [ng/mL],IC50 against P388 cell line (conc 0.001 (unit of conc not given)) [ng/mL],"IC50 against P388 cell line (other day, conc 0.001 (unit of conc not given)) [ng/mL]","IC50, murine leukaemia cell (P388 cell line) [ng/mL]"
C=C1C[C@@H]2CC[C@@]34C[C@H]5O[C@H]6[C@@H](O3)[C@H]3O[C@H](CC[C@@H]3O[C@H]6[C@H]5O4)CC(=O)O[C@@H]3[C@@H](C)[C@@H]4O[C@@H]5C[C@]6(C[C@@H]7O[C@]8(C[C@H](C)[C@@H]9O[C@H]([C@@H](O)C[C@@H](O)CO)C[C@@H]9O8)C[C@H](C)[C@@H]7O6)O[C@@H]5C[C@@H]4O[C@H]3C[C@H]3O[C@@H](CC[C@@H]1O2)C[C@@H](C)C3=C [Halichondrin B],0.78,1.58,< 0.09,6.7
C=C1C[C@@H]2CC[C@@]34C[C@H]5O[C@H]6[C@@H](O3)[C@H]3O[C@H](CC[C@@H]3O[C@H]6[C@H]5O4)CC(=O)O[C@@H]3[C@@H](C)[C@@H]4O[C@@H]5C[C@]6(C[C@@H]7O[C@]8(C[C@H](C)[C@@H]9O[C@@H]%10CC(C(O)CO)O[C@@H]%10C[C@@H]9O8)C[C@H](C)[C@@H]7O6)O[C@@H]5C[C@@H]4O[C@H]3C[C@H]3O[C@@H](CC[C@@H]1O2)C[C@@H](C)C3=C (some centres unmarked) [Homohalichondrin B],–,–,–,6.4
